Experimental data: ChEMBL document CHEMBL1131768, “Orally bioavailable nonpeptide vitronectin receptor antagonists containing 2-aminopyridine arginine mimetics” (Bioorg Med Chem Lett, 1999)

Key:
[1] = in vivo; details: rat, po
[2] = in vivo; details: dog, iv
[3] = in vivo; details: rat, iv
[4] = in vivo; details: dog, po
[5] = in vivo; details: dog, iv; remark: listed apart in the source
[6] = in vivo; details: rat, iv; remark: listed apart in the source

CN1Cc2cc(C(=O)NCc3cccc(N)n3)ccc2N[C@@H](CC(=O)O)C1=O
bioavailability [1]: 13% | half-life [2]: 47 min | clearance [3]: 63 mL/min/kg | bioavailability [4]: 10% | clearance [5]: 7.8 mL/min/kg | half-life [6]: 45 min
